# Patent publication US20020061888A1, “Combination therapy for the prophylaxis and treatment of hyperlipidemic conditions and disorders” (priority 2000, published 2002)
# Assay: Water uptake experiments (Dynamic Vapor Sorption, water sorption/desorption isotherms at 25° C.)
# Format: physicochemical
# Description: A dry sample of the crystalline form having a melting point or a decomposition point of about 278° C. to about 285° C. (i.e., Form II) typically gains less than about 1% of its own weight when equilibrated under 80% relative humidity (RH) air at 25° C. […] For the present purposes, the term “essentially 0% RH” means less than about 1% RH. The term “equilibrated” means that the change in weight of a sample over time at a given relative humidity is less than 0.0003% ((dm/dt)/m0 ×100, where m is mass in mg, m0 is initial mass, and t is time in minutes).
# Water sorption experiments are performed on a Dynamic Vapor Sorption (DVS) apparatus (DVS-1000 manufactured by Surface Measurements Systems, Inc.). Experiments are performed at 25° C. by initially drying the material of interest (about 10 mg sample) from 30% relative humidity (RH) ([…] RH step) by purging with dry nitrogen until no further weight change was observed. The samples are then exposed to a stepwise (10% RH steps) increase in RH from about 0 to about 90% RH. Each successive step is initiated when the change in weight over time at the relative humidity was less than 0.0003% ((dm/dt)/m0×100, where m is mass in mg, m0 is initial mass, and t is time in minutes). The sample is then taken through the reverse of the stepwise % RH increase. The data are collected on a computer and analyzed using SMS' proprietary MS-Excel macro interface software.
smiles,measurement,setting,value
"CCCCC1(CCCC)CS(=O)(=O)c2ccc(N(C)C)cc2[C@@H](c2ccc(OCc3ccc(C[N+]45CCN(CC4)CC5)cc3)cc2)[C@H]1O [Form II, (4R,5R)-1-((4-(4-(3,3-dibutyl-7-(dimethylamino)-2,3,4,5-tetrahydro-4-hydroxy-1,1-dioxido-1-benzithiepin-5-yl)phenoxy)methyl)phenyl)methyl-4-aza-1-azoniabicyclo[2.2.2]octane chloride]",Desorption % Weight Change,1.3% RH at 25° C.,−0.02695%
same,Sorption % Weight Change,1.3% RH at 25° C.,−0.02695%
same,Desorption % Weight Change,9.35% RH at 25° C.,0.04235%
same,Sorption % Weight Change,9.35% RH at 25° C.,0.04715%
same,Desorption % Weight Change,20.25% RH at 25° C.,0.09715%
same,Sorption % Weight Change,20.25% RH at 25° C.,0.1058%
same,Desorption % Weight Change,29.75% RH at 25° C.,0.1444%
same,Sorption % Weight Change,29.75% RH at 25° C.,0.1376%
same,Desorption % Weight Change,39.55% RH at 25° C.,0.1866%
same,Sorption % Weight Change,39.55% RH at 25° C.,0.1809%
same,Desorption % Weight Change,49.7% RH at 25° C.,0.2636%
same,Sorption % Weight Change,49.7% RH at 25° C.,0.2386%
same,Desorption % Weight Change,59.5% RH at 25° C.,0.331%
same,Sorption % Weight Change,59.5% RH at 25° C.,0.304%
same,Desorption % Weight Change,69.1% RH at 25° C.,0.3983%
same,Sorption % Weight Change,69.1% RH at 25° C.,0.3945%
same,Desorption % Weight Change,78.65% RH at 25° C.,0.4849%
same,Sorption % Weight Change,78.65% RH at 25° C.,0.4695%
same,Desorption % Weight Change,88.5% RH at 25° C.,0.6446%
same,Sorption % Weight Change,88.5% RH at 25° C.,0.6446%
same,hygroscopicity,"crystalline form, 80% RH air at 25° C.",essentially non-hygroscopic
same,weight gain when equilibrated under 80% relative humidity (RH) air at 25° C.,"dry sample (dried at essentially 0% RH, about 25° C., dry nitrogen purge)",less than 1 % of its own weight
"CCCCC1(CCCC)CS(=O)(=O)c2ccc(N(C)C)cc2[C@@H](c2ccc(OCc3ccc(C[N+]45CCN(CC4)CC5)cc3)cc2)[C@H]1O [Form I, (4R,5R)-1-((4-(4-(3,3-dibutyl-7-(dimethylamino)-2,3,4,5-tetrahydro-4-hydroxy-1,1-dioxido-1-benzithiepin-5-yl)phenoxy)methyl)phenyl)methyl-4-aza-1-azoniabicyclo[2.2.2]octane chloride]",Desorption % Weight Change,0.45% RH at 25° C.,0.057%
same,Sorption % Weight Change,0.45% RH at 25° C.,0.057%
same,Desorption % Weight Change,9.2% RH at 25° C.,0.997%
same,Sorption % Weight Change,9.2% RH at 25° C.,0.9575%
same,Desorption % Weight Change,20.05% RH at 25° C.,2.1025%
same,Sorption % Weight Change,20.05% RH at 25° C.,2.016%
same,Desorption % Weight Change,29.75% RH at 25° C.,3.599%
same,Sorption % Weight Change,29.75% RH at 25° C.,3.4105%
same,Desorption % Weight Change,39.4% RH at 25° C.,4.743%
same,Sorption % Weight Change,39.4% RH at 25° C.,4.282%
same,Desorption % Weight Change,49.55% RH at 25° C.,5.321%
same,Sorption % Weight Change,49.55% RH at 25° C.,4.928%
same,Desorption % Weight Change,59.4% RH at 25° C.,5.726%
same,Sorption % Weight Change,59.4% RH at 25° C.,5.356%
same,Desorption % Weight Change,69.05% RH at 25° C.,6.054%
same,Sorption % Weight Change,69.05% RH at 25° C.,5.706%
same,Desorption % Weight Change,78.8% RH at 25° C.,6.357%
same,Sorption % Weight Change,78.8% RH at 25° C.,6.109%
same,Desorption % Weight Change,88.5% RH at 25° C.,6.734%
same,Sorption % Weight Change,88.5% RH at 25° C.,6.734%
